According to US11498923B2 (Merck Sharp & Dohme Corp., priority 2017, dated 2022):

Target: T1, human A2a receptor (Homo sapiens, UniProt P29274)
T1 construct: purchased Perkin-Elmer RBHA2AM400UA; host or cells: HEK293 cells, used as a membrane preparation
Assay: A2a receptor competition binding assay (Scintillation Proximity)
Settings: membranes from HEK293 cells expressing human A2a receptor; 0.5 nM tritiated ligand; Cheng-Prusoff; read-out: A2a Ki
Protocol: Binding affinities of compounds of the invention for the human A2a receptor were determined in a competition binding assay using Scintillation Proximity technology. Thus, 0.3 μg of membranes from HEK293 cells expressing the human A2a receptor were incubated with a compound of the invention at concentrations ranging from 3000 nM to 0.15 nM in a reaction mixture containing also 0.5 nM of a tritiated form of 5-amino-7-[2-phenethyl]-2-(furan-2-yl)-7H-pyrazolo[4,3-e][1,2,4]triazolo[1,5-c]pyrimidine (the tritiated compound) and 100 μg of wheat germ agglutin-coated yttrium silicate SPA beads for one hour at room temperature with agitation. The beads were then allowed to settle to the bottom of the wells for 1 hr, after which the membrane-associated radioactivity was determined by scintillation counting in a TopCount microplate reader. Ki values were determined using the Cheng-Prusoff equation.
Summary of Materials and Methods Used in A2a Activity Determination:
HEK293 cells expressing the human, rat, dog or monkey adenosine 2a receptor (Purchased from Perkin-Elmer #RBHA2AM400UA).
The Tritiated compound was prepared according to published methods.
Wheat germ agglutinin-coated yttrium silicate SPA beads (GE Healthcare #RPNQ0023). Dilute to 25 mg/ml in assay buffer.
Assay Buffer was prepared using Dulbecco's calcium and magnesium free phosphate buffered saline+10 mMMgCl2
Adenosine deaminase from calf intestine, 10 mg/2 ml (Roche #10 102 105 001).
A2a antagonist standard (9-chloro-1-(2-furanyl)-[1,2,4]triazolo1,5-c]quinazolin-5-amine from Tocris Bioscience)
Make eight 1:3 serial dilutions in 100% DMSO from a 3 mM compound stock
Transfer 50 nl of compound into a 384-well OptiPlate (Perkin Elmer).
Typically, final concentrations of compound used in the assay ranged from 3000 nM to 0.152 nM.
Dilute a solution of the Tritiated compound to 1.25 nM in assay buffer. This is a 2.5× solution. The final concentration in the assay is 0.5 nM. Calculate the concentration by counting two 5 μl aliquots.
Use 0.25 ug of membrane/well. Dilute membranes to 9.7 μg/ml in assay buffer. Treat with 20 ug/ml adenosine deaminase (ADA) for 15 minutes at room temperature to degrade endogenous adenosine.
Use 100 μg/well wheat germ agglutinin-coated yttrium silicate SPA beads.
Mix ADA-treated membranes and SPA beads together for 30 min prior to assay.
To the Perkin-Elmer Optiplate-384 containing the compound titration add 20 μl of 2.5× solution of the Tritiated compound and 30 μl of the membrane-bead mixture. Incubate for one hour at room temperature with agitation.
Include total binding (assay buffer+1% DMSO) and non-specific binding (CGS15943, 1 μM) wells.
Allow the beads to settle for one hour.
A curve fitting program (i.e., Prism, Activity Base, Chemcart) is used to determine the EC50. The Ki value is calculated using the Cheng-Prusoff equation. Ki=EC50/(1+(radioligand concentration/Kd))

T1 sequence (P29274 whole entry): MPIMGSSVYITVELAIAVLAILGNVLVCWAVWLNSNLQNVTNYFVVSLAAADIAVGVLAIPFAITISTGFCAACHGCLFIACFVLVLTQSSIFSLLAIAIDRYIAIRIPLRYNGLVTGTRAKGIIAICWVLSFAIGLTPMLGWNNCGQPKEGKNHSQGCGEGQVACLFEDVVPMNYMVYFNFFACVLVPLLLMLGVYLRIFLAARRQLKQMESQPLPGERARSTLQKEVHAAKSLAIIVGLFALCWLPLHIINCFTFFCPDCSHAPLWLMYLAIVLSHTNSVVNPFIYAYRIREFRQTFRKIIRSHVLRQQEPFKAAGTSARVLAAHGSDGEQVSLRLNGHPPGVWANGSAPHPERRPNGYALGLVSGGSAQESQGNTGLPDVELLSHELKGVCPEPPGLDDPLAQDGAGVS

Compound	Ki
COc1cccc2c1nc(N)n1cc(CN3Cc4ccc(F)cc4C3)nc21 [Ex-123, 2-((5-fluoroisoindolin-2-yl)methyl)-7-methoxyimidazo[1,2-c]quinazolin-5-amine]	9.2 nM
Nc1nc2c(F)cccc2c2nc(C(=O)N3CCC4(CCNC4)CC3)cn12 [Ex-267, (5-amino-7-fluoroimidazo[1,2-c]quinazolin-2-yl)(2,8-diazaspiro[4.5]decan-8-yl)methanone]	710 nM
Nc1nc2c(F)cccc2c2nc(CN3CCc4cc(CC(=O)Nc5ccccn5)ccc4C3)cn12 [Ex-129, 2-(2-((5-amino-7-fluoroimidazo[1,2-c]quinazolin-2-yl)methyl)-1,2,3,4-tetrahydroisoquinolin-6-yl)-N-(pyridin-2-yl)acetamide]	51 nM
COc1cccc2c1nc(N)n1cc(C(=O)N3CCN4CCCC[C@@H]4C3)nc21 [Ex-245, (R)-(5-amino-7-methoxyimidazo[1,2-c]quinazolin-2-yl)(octahydro-2H-pyrido[1,2-a]pyrazin-2-yl)methanone]	152 nM
Nc1nc2c(F)cccc2c2nc(CC3CCN(c4ccc(F)cn4)CC3)cn12 [Ex-319, 5-amino-7-fluoro-2-((1-(5-fluoropyridin-2-yl)piperidin-4-yl)-methyl)imidazo[1,2-c]quinazolin-6-ium 2,2,2-trifluoroacetate]	31 nM
C[C@H](NC(=O)c1cn2c(N)nc3c(F)cccc3c2n1)c1ccccc1 [Ex-296, (S)-5-amino-7-fluoro-N-(1-phenylethyl)imidazo[1,2-c]quinazoline-2-carboxamide]	28 nM
COc1cccc2c1nc(N)n1cc(C(=O)N3CCC[C@@H]3C(F)(F)F)nc21 [Ex-217, (R)-(5-amino-7-methoxyimidazo[1,2-c]quinazolin-2-yl)(2-(trifluoromethyl)pyrrolidin-1-yl)methanone]	7.8 nM
CCCN1CCc2c(Cc3cn4c(N)nc5c(F)cccc5c4n3)cccc2C1 [Ex-56, 7-fluoro-2-((2-propyl-1,2,3,4-tetrahydroisoquinolin-5-yl)melhyl)imidazo-[1,2-c]quinazolin-5-amine]	16 nM
COc1cccc2c1nc(N)n1cc(Cc3ccccc3N3CCCCC3)nc21 [Ex-36, 7-methoxy-2-(2-(piperidin-1-yl)benzyl)imidazo[1,2-c]quinazolin-5-amine]	2.8 nM
COc1cccc2c1nc(N)n1cc(CN3CCc4ccc(-c5cncnc5)cc4C3)nc21 [Ex-134]	7.9 nM
COc1ccnc(C(=O)N2CCC(Cc3cn4c(N)nc5c(F)cccc5c4n3)CC2)c1 [Ex-320, (4-((5-amino-7-fluoroimidazo[1,2-c]quinazolin-2-yl)-methyl)piperidin-1-yl)(4-methoxypyridin-2-yl)methanone]	30 nM
Nc1nc2c(F)cccc2c2nc(CN3CCC(Cc4ccccc4)CC3)cn12 [Ex-114, 2-((4-benzylpiperidin-1-yl)methyl)-7-fluoroimidazo[1,2-c]quinazolin-5-amine]	130 nM
Nc1nc2c(F)cccc2c2nc(Cn3cc(-c4cccnc4)nn3)cn12 [Ex-96, 7-fluoro-2-((4-(pyridin-3-yl)-1H-1,2,3-triazol-1-yl)methyl)imidazo[1,2-c]quinazolin-5-amine]	36 nM
COc1cccc2c1nc(N)n1cc(Cc3cccc(-c4ccccc4)c3)nc21 [Ex-24, 2-([1,1′-biphenyl]-3-ylmethyl)-7-methoxyimidazo[1,2-c]quinazolin-5-amine]	10 nM
Nc1nc2c(F)cccc2c2nc(C(=O)NC3CCNc4ccccc43)cn12 (stereo not drawn) [Ex-248, 5-amino-7-fluoro-N-(1,2,3,4-tetrahydroquinolin-4-yl)imidazo[1,2-c]quinazoline-2-carboxamide]	9 nM
Cc1cccc(CNC(=O)c2cn3c(N)nc4c(F)cccc4c3n2)n1 [Ex-295, 5-amino-7-fluoro-N-((6-methylpyridin-2-yl)methyl)imidazo[1,2-c]quinazoline-2-carboxamide]	6.2 nM
Nc1nc2c(F)cccc2c2nc(CC3CCN(C(=O)c4ncccn4)CC3)cn12 [Ex-326, (4-((5-amino-7-fluoroimidazo[1,2-c]quinazolin-2-yl)-methyl)piperidin-1-yl)(pyrimidin-2-yl)-methanone]	47 nM

Compound	Ki
COc1cccc2c1nc(N)n1cc(C(=O)N3CCCC4(CCOC4=O)C3)nc21 (stereo not drawn) [Ex-233, 7-(5-amino-7-methoxyimidazo[1,2-c]quinazoline-2-carbonyl)-2-oxa-7-azaspiro[4.5]decan-1-one]	10 nM
COc1cccc2c1nc(N)n1cc(C(=O)N3CCC4(CC3)COC4)nc21 [Ex-206, (5-amino-7-methoxyimidazo[1,2-c]quinazolin-2-yl)(2-oxa-7-azaspiro[3.5]nonan-7-yl)methanone]	110 nM
Nc1nc2c(F)cccc2c2nc(C(=O)N3CCc4cccc(CN5CCN(c6ccc(F)cc6F)CC5)c4C3)cn12 [Ex-247]	120 nM
COc1cccc2c1nc(N)n1cc(Cc3ccnc(N4CCOCC4)c3)nc21 [Ex-40, 7-methoxy-2-((2-morpholinopyridin-4-yl)methyl)imidazo[1,2-c]quinazolin-5-amine]	10 nM
Nc1nc2c(F)cccc2c2nc(C(=O)N3CCC4(CCN(Cc5ccc(F)cc5)C4)C3)cn12 (stereo not drawn) [Ex-273, (5-amino-7-fluoroimidazo[1,2-c]quinazolin-2-yl)(7-(4-fluorobenzyl)-2,7-diazaspiro[4.4]nonan-2-yl)methanone]	110 nM
COc1cccc2c1nc(N)n1cc(C(=O)N3CCC4(CCCC4)C3)nc21 [Ex-222, (5-amino-7-methoxyimidazo[1,2-c]quinazolin-2-yl)(2-azaspiro[4.4]nonan-2-yl)methanone]	11 nM
COc1cccc2c1nc(N)n1cc(C(=O)N3CC4CC4C3)nc21 (stereo not drawn) [Ex-235, (5-amino-7-methoxyimidazo[1,2-c]quinazolin-2-yl)(3-azabicyclo[3.1.0]hexan-3-yl)methanone]	2.8 nM
COc1cccc2c1nc(N)n1cc(C(=O)N3CCCC(C)C3)nc21 (stereo not drawn) [Ex-170, (5-amino-7-methoxyimidazo[1,2-c]quinazolin-2-yl)(3-methylpiperidin-1-yl)methanone]	11.5 nM
COc1cccc2c1nc(N)n1cc(Cc3cccnc3Cl)nc21 [Ex-38, 2-((2-chloropyridin-3-yl)methyl)-7-methoxyimidazo[1,2-c]quinazolin-5-amine]	2.3 nM
Nc1nc2c(F)cccc2c2nc(C(=O)NCc3ccccc3CN3CCN(c4ccccn4)CC3)cn12 [Ex-246, 5-amino-7-fluoro-N-(2-((4-(pyridin-2-yl)piperazin-1-yl)methyl)benzyl)imidazo[1,2-c]quinazoline-2-carboxamide]	21 nM
C[C@@H](NC(=O)c1cn2c(N)nc3c(F)cccc3c2n1)c1ccccc1 [Ex-297, (R)-5-amino-7-fluoro-N-(1-phenylethyl)imidazo[1,2-c]quinazoline-2-carboxamide]	2.3 nM
COc1cccc2c1nc(N)n1cc(C(=O)N3C[C@@H]4C[C@H]3CO4)nc21 [Ex-225, (5-amino-7-methoxyimidazo[1,2-c]quinazolin-2-yl)((1S,4S)-2-oxa-5-azabicyclo[2.2.1]heptan-5-yl)methanone]	35 nM
Nc1nc2c(F)cccc2c2nc(C(=O)N3CCc4cccc(CN5CCN(c6ccccn6)CC5)c4C3)cn12 [Ex-251, (5-amino-7-fluoroimidazo[1,2-c]quinazolin-2-yl)(8-((4-(pyridin-2-yl)piperazin-1-yl)methyl)-3,4-dihydroisoquinolin-2(1H)-yl)methanone]	91 nM
COc1cccc2c1nc(N)n1cc(C(=O)N3CCCC4(CC4)C3)nc21 [Ex-242, (5-amino-7-methoxyimidazo[1,2-c]quinazolin-2-yl)(5-azaspiro[2.5]octan-5-yl)methanone]	4.3 nM
COc1cccc2c1nc(N)n1cc(Cc3cccc(N4CCOCC4)c3)nc21 [Ex-28, 7-methoxy-2-(3-morpholinobenzyl)imidazo[1,2-c]quinazolin-5-amine]	2.1 nM
Nc1nc2c(F)cccc2c2nc(C(=O)N3CCC4(CCN(CCc5ccc(F)cc5)C4)C3)cn12 (stereo not drawn) [Ex-281, (5-amino-7-fluoroimidazo[1,2-c]quinazolin-2-yl)(7-(4-fluorophenethyl)-2,7-diazaspiro[4.4]nonan-2-yl)methanone]	170 nM
